Assay results: ChEMBL document CHEMBL3991601, “The target landscape of clinical kinase drugs” (Science, 2017)
Active and inactive are the calls of the source. For most assays here, no stated cut-off is given here; in the data, actives have a measured Kd and inactives only a lower limit.

Assays:
[1] = target: Protein-tyrosine kinase 6 (Homo sapiens, UniProt Q13882)
[2] = target: T1, Serine/threonine-protein kinase TAO2 (Homo sapiens, UniProt Q9UL54)
T1 sequence (Q9UL54 whole entry): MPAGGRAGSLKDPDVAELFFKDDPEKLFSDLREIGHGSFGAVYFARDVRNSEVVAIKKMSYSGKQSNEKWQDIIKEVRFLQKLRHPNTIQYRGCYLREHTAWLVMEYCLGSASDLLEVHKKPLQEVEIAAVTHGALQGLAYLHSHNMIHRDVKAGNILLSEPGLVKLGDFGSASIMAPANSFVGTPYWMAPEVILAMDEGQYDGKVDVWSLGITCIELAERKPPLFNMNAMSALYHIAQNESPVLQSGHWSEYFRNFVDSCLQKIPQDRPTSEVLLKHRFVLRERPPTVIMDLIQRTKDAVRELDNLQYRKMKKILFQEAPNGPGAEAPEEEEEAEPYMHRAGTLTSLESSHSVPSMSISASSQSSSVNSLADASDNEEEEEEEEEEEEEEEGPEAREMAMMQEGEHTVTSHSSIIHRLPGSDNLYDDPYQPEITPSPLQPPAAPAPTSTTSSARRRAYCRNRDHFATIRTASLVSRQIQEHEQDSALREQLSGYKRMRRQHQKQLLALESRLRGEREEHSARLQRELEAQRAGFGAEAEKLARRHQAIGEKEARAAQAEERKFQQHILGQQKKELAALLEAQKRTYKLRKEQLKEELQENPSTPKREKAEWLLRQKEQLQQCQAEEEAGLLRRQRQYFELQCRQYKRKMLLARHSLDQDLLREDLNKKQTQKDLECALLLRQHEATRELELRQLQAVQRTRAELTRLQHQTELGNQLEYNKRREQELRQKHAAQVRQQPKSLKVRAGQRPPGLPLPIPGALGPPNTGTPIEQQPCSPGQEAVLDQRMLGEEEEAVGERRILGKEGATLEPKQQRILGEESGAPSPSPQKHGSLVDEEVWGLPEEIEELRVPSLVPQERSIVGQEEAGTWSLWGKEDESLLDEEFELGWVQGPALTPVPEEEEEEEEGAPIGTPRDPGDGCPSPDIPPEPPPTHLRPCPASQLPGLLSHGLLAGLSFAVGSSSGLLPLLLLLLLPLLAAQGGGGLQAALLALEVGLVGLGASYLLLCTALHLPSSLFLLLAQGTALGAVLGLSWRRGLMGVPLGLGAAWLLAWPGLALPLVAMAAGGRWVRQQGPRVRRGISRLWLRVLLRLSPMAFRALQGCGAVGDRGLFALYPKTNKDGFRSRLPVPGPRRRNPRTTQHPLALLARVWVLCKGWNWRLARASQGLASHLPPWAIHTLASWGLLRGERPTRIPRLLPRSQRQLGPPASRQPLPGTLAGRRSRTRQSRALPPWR

Heme oxygenase 2 = target: T2, Heme oxygenase 2 (Homo sapiens, UniProt P30519)
T2 sequence (P30519 whole entry): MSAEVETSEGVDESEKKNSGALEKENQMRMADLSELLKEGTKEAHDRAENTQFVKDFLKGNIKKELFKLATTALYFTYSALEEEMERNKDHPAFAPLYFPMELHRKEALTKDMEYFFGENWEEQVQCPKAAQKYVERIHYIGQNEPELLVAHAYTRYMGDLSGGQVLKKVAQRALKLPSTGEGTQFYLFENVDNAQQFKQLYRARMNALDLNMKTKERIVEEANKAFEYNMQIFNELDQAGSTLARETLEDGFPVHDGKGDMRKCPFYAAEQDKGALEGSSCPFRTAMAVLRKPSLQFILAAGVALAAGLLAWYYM

[3] = target: T3, Interleukin-1 receptor-associated kinase 3 (Homo sapiens, UniProt Q9Y616)
T3 sequence (Q9Y616 whole entry): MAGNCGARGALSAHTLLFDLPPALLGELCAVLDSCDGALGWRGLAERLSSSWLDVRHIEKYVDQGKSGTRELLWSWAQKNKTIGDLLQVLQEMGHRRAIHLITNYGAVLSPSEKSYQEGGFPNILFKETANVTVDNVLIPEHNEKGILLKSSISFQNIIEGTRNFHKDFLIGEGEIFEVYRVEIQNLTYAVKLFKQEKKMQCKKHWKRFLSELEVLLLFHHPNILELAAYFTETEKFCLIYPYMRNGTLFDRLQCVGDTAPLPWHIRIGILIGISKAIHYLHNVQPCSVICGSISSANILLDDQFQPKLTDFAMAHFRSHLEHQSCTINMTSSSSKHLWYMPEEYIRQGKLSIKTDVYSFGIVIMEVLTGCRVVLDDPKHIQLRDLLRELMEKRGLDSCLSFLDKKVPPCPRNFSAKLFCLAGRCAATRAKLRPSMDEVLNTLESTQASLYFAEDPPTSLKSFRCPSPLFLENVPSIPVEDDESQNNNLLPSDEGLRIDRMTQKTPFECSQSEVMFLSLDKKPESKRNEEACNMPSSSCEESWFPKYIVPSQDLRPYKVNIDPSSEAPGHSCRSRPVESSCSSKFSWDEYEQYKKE

[4] = target: Epithelial discoidin domain-containing receptor 1 (Homo sapiens, UniProt Q08345)
Sequence of Epithelial discoidin domain-containing receptor 1 (Q08345 whole entry, the tested form may be a part): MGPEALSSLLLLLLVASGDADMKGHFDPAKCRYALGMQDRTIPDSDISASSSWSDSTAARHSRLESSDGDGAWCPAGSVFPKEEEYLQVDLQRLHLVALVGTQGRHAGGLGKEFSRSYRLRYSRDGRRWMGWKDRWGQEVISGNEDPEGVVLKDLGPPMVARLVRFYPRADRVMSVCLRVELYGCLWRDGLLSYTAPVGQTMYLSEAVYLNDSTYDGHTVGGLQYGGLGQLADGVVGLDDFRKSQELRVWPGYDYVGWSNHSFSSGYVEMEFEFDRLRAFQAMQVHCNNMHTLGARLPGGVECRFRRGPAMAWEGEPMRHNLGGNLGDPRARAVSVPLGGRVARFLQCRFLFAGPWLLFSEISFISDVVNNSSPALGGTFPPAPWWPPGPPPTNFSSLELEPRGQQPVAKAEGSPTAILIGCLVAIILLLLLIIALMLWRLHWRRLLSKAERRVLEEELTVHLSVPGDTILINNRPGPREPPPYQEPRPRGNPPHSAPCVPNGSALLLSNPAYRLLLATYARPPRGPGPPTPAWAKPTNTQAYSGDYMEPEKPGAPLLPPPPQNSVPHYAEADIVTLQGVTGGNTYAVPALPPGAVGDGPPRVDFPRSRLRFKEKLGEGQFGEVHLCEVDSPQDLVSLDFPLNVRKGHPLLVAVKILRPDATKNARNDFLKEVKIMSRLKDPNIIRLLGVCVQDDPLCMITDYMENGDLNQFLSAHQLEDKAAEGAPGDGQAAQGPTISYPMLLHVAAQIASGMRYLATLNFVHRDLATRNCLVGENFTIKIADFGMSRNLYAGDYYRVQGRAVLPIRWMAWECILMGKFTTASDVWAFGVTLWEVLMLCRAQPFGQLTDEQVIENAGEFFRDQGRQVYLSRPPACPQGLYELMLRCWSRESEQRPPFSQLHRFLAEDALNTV

[5] = target: Receptor-interacting serine/threonine-protein kinase 3 (Homo sapiens, UniProt Q9Y572)
Sequence of Receptor-interacting serine/threonine-protein kinase 3 (Q9Y572 whole entry): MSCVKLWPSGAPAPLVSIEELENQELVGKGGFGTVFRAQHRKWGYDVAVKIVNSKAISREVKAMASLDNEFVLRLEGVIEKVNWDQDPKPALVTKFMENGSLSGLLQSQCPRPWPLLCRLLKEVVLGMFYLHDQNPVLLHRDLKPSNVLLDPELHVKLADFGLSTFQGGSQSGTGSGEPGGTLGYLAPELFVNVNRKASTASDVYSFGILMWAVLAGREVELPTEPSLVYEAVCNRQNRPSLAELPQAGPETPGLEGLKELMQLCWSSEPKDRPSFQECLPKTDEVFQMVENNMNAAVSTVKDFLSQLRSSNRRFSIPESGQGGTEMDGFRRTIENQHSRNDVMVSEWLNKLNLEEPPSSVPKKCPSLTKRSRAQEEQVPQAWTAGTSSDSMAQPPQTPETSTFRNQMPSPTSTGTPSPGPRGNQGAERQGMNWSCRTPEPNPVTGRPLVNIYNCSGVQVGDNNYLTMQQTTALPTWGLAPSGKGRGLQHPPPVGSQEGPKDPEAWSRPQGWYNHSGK

[6] = target: Guanine nucleotide-binding protein G(i) subunit alpha-2 (Homo sapiens, UniProt P04899)
Sequence of Guanine nucleotide-binding protein G(i) subunit alpha-2 (P04899 whole entry): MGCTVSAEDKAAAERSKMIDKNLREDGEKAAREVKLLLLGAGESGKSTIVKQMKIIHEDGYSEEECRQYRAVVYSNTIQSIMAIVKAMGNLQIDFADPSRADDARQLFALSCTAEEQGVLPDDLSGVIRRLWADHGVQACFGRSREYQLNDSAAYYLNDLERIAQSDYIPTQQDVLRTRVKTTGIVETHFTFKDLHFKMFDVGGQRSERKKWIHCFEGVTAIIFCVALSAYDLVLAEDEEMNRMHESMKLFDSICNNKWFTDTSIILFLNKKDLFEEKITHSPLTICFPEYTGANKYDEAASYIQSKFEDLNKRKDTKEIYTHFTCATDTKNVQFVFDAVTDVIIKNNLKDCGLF

[7] = target: 26S proteasome regulatory subunit 6B (Homo sapiens, UniProt P43686)
Sequence of 26S proteasome regulatory subunit 6B (P43686 whole entry): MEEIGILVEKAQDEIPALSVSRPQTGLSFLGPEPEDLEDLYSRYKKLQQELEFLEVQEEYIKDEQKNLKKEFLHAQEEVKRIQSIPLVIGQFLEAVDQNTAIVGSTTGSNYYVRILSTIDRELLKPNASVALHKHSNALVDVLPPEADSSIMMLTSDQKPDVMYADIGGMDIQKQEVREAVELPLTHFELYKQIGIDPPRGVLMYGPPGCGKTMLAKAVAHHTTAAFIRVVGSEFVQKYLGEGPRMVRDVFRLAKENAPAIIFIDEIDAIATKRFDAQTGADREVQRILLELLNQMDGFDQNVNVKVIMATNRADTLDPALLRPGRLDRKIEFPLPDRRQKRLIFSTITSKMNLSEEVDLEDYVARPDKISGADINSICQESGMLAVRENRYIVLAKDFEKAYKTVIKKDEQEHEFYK

[8] = target: Calcium/calmodulin-dependent protein kinase type II subunit delta (Homo sapiens, UniProt Q13557)
Sequence of Calcium/calmodulin-dependent protein kinase type II subunit delta (Q13557 whole entry): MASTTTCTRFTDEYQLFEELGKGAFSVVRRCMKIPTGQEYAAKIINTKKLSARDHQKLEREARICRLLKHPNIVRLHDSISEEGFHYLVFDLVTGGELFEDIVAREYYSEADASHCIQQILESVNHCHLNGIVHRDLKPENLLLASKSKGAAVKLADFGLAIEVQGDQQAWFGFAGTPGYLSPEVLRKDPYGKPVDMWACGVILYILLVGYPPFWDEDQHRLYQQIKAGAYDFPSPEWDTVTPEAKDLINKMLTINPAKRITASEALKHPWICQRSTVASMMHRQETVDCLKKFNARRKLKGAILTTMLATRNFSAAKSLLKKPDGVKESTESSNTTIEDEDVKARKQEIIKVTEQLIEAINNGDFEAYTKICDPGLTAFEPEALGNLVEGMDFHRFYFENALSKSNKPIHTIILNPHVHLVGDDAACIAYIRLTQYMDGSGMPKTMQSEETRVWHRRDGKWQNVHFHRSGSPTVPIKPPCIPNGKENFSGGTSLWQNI

[9] = target: Tyrosine-protein kinase HCK (Homo sapiens, UniProt P08631)
Sequence of Tyrosine-protein kinase HCK (P08631 whole entry, the tested form may be a part): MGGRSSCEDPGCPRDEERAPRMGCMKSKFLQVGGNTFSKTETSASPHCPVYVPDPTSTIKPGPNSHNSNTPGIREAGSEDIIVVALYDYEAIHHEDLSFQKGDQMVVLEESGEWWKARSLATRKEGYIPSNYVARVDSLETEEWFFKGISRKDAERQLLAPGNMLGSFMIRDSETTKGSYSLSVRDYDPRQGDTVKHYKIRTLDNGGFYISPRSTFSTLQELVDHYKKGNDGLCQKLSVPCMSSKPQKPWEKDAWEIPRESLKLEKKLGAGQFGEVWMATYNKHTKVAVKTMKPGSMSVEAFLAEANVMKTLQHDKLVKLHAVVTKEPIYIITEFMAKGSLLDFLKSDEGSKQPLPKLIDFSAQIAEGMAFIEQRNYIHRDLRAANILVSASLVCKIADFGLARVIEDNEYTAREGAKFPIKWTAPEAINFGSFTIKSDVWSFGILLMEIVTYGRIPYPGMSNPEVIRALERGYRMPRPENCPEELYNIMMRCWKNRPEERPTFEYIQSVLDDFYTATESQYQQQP

LIM domain kinase 1 = LIM domain kinase 1 (Homo sapiens, UniProt P53667)
Sequence of LIM domain kinase 1 (P53667 whole entry, the tested form may be a part): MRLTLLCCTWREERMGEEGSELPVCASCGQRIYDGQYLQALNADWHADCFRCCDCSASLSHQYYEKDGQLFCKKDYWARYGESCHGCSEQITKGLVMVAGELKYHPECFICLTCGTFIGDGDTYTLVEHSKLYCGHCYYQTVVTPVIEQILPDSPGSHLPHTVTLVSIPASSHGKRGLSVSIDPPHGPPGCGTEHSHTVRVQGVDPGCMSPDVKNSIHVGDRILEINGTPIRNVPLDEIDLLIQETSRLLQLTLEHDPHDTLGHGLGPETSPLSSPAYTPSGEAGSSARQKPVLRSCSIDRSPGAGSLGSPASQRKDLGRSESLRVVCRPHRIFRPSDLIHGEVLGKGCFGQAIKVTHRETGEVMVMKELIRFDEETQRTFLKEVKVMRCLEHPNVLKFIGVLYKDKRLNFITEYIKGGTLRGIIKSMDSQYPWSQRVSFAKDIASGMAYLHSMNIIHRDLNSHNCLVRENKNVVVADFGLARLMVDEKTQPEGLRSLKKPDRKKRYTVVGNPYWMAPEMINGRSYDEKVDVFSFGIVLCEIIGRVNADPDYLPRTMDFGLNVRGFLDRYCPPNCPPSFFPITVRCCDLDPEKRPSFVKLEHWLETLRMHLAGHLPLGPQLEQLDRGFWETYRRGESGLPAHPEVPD

[10] = target: Serine/threonine-protein kinase pim-1 (Homo sapiens, UniProt P11309)
Sequence of Serine/threonine-protein kinase pim-1 (P11309 whole entry): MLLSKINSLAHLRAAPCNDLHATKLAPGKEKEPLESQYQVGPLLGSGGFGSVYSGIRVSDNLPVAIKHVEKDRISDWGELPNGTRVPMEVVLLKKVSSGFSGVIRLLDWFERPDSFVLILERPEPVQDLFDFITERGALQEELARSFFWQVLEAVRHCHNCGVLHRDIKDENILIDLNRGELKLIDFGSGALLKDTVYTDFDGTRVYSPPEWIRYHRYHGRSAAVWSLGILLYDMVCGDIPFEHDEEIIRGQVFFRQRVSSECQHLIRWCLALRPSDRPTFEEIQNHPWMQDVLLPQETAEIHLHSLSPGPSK

[11] = target: Mitogen-activated protein kinase 9 (Homo sapiens, UniProt P45984)

Sequence of Protein-tyrosine kinase 6 (Q13882 whole entry): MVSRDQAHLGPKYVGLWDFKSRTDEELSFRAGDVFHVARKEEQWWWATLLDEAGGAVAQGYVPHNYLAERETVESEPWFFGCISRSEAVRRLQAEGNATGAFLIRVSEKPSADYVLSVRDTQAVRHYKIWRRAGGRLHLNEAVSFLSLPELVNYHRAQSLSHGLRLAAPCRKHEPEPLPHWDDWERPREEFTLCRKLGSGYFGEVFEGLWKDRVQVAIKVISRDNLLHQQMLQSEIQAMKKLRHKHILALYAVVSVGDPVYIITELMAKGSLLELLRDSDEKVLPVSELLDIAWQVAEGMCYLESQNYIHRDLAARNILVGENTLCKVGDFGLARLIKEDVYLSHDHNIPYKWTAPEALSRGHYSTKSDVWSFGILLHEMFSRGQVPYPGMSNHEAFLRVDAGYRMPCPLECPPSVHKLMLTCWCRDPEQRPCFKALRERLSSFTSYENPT

In the case of `CN(c1ncccc1CNc1nc(Nc2ccc3c(c2)CC(=O)N3)ncc1C(F)(F)F)S(C)(=O)=O` [PF-00562271], the Kd [1] is reported as > 30 µM (inactive), the Kd [2] is reported as > 30 µM (inactive) and the Kd (Heme oxygenase 2) is reported as > 30 µM (inactive). For the same molecule, the Kd [3] was > 30 µM (inactive), the Kd [4] was > 30 µM (inactive) and the Kd [5] was > 30 µM (inactive). For the same molecule, the Kd [6] was > 30 µM (inactive) and the Kd [7] was > 30 µM (inactive).

`C=CCn1c(=O)c2cnc(Nc3ccc(N4CCN(C)CC4)cc3)nc2n1-c1cccc(C(C)(C)O)n1` [ADAVOSERTIB] was tested, and the Kd [8] was > 30 µM (inactive), the Kd [1] was > 30 µM (inactive) and the Kd [2] was > 30 µM (inactive). The Kd [9] was > 30 µM (inactive), the Kd (Heme oxygenase 2) was > 30 µM (inactive) and the Kd [3] was > 30 µM (inactive). The Kd [4] was > 30 µM (inactive), the Kd [5] was > 30 µM (inactive) and the Kd [6] was > 30 µM (inactive). For the same molecule, the Kd [7] was > 30 µM (inactive).

For `COc1cc2c(Oc3ccc4[nH]c(C)cc4c3F)ncnc2cc1OCCCN1CCCC1` [CEDIRANIB], the Kd [1] was 1.22 µM (active), the Kd (Heme oxygenase 2) was > 30 µM (inactive) and the Kd [5] was > 30 µM (inactive). The Kd [7] was > 30 µM (inactive).

In the case of `N#CCNC(=O)c1ccc(-c2ccnc(Nc3ccc(N4CCOCC4)cc3)n2)cc1` [MOMELOTINIB], the Kd [1] is reported as > 30 µM (inactive), the Kd [2] is reported as > 30 µM (inactive) and the Kd (LIM domain kinase 1) is reported as > 30 µM (inactive). For the same molecule, the Kd (Heme oxygenase 2) was > 30 µM (inactive), the Kd [10] was > 30 µM (inactive) and the Kd [3] was > 30 µM (inactive). The Kd [4] was > 30 µM (inactive), the Kd [5] was > 30 µM (inactive) and the Kd [6] was > 30 µM (inactive). For the same molecule, the Kd [7] was > 30 µM (inactive).

With `CC1(C)CNc2cc(NC(=O)c3cccnc3NCc3ccncc3)ccc21` [MOTESANIB] the Kd (Heme oxygenase 2) was > 30 µM (inactive), the Kd [5] was 1.04 µM (active) and the Kd [6] was > 30 µM (inactive). For the same molecule, the Kd [7] was > 30 µM (inactive).

For `O=C(O)c1ccc2c(c1)nc(Nc1cccc(Cl)c1)c1ccncc12` [SILMITASERTIB], the Kd [8] was > 30 µM (inactive), the Kd [1] was > 30 µM (inactive) and the Kd [2] was > 30 µM (inactive). The Kd [9] was > 30 µM (inactive), the Kd [11] was > 30 µM (inactive) and the Kd (LIM domain kinase 1) was > 30 µM (inactive). For the same molecule, the Kd (Heme oxygenase 2) was > 30 µM (inactive), the Kd [3] was > 30 µM (inactive) and the Kd [4] was > 30 µM (inactive). For the same molecule, the Kd [5] was 2.18 µM (active) and the Kd [7] was > 30 µM (inactive).

In the case of `CN(C)C/C=C/C(=O)Nc1cc2c(Nc3ccc(F)c(Cl)c3)ncnc2cc1O[C@H]1CCOC1` [AFATINIB], the Kd (Heme oxygenase 2) is reported as > 30 µM (inactive), the Kd [5] is reported as > 30 µM (inactive) and the Kd [6] is reported as > 30 µM (inactive). For the same molecule, the Kd [7] was > 30 µM (inactive).

`NC(=O)c1ccc(N(C(N)=O)c2c(F)cccc2F)nc1-c1ccc(F)cc1F` [VX-702] was tested, and the Kd [8] was > 30 µM (inactive), the Kd [1] was > 30 µM (inactive) and the Kd [2] was > 30 µM (inactive). For the same molecule, the Kd [9] was > 30 µM (inactive), the Kd (LIM domain kinase 1) was > 30 µM (inactive) and the Kd (Heme oxygenase 2) was > 30 µM (inactive). The Kd [10] was > 30 µM (inactive), the Kd [3] was > 30 µM (inactive) and the Kd [4] was > 30 µM (inactive). For the same molecule, the Kd [5] was > 30 µM (inactive), the Kd [6] was > 30 µM (inactive) and the Kd [7] was > 30 µM (inactive).
